Patent publication US8017326B2, “Methods of modulating cell death based on the Bit-1/AES regulatory pathway” (Sanford-Burnham Medical Research Institute, priority 2002, dated 2011)
Where a SMILES comes first, the peptide text is derived from it. Where no end group is shown, it is not given here. The star is where a group is joined. Cbz = O=C(OCc1ccccc1)*; CH2F = FC*

How the values were obtained:
Bit1 in HeLa cells = assay: Localization of C-terminally tagged Bit1 in cells induced to undergo apoptosis; format: cell-based; settings: 0.5 μM staurosporin
Excerpt: Colocalization of Bit1 with an endoplasmic reticulum or golgi marker was not observed.

[1] = test system: Bit1-induced apoptosis in 293T cells; assay: Caspase inhibitors and anti-apoptotic proteins against Bit1; format: cell-based, human; settings: cytosolic Bit1
Excerpt: (§1) 293T cells were also co-transfected with Bit1 or AES and the caspase inhibitor proteins crmA and XIAP.

[2] = test system: AES-induced apoptosis in 293T cells; assay: Caspase inhibitors and anti-apoptotic proteins against AES; format: cell-based, human
Excerpt: as §1

CHO cells = assay: Deletion analysis, cell death by trypan blue exclusion; format: cell-based, Chinese hamster; settings: 10 μg construct, trypan blue exclusion 48 hours after transfection
Method: The amino-terminal portion of Bit1 (residues 16-40) is hydrophobic and can serve as a transmembrane domain or signal peptide sequence. When the hydrophobicity of this portion was reduced by substitution of glycine 22 and glycine 38 by serine, Bit1 apoptotic activity was reduced.
Deletion analysis was performed as follows. The indicated deletion mutants were cloned into vector pEGFP-C1, and 10 μg of each plasmid construct transfected into CHO cells. Cell death was measured by trypan blue exclusion 48 hours after transfection.
To delineate the pro-apoptotic domain of AES, a series of AES deletion mutants was prepared as amino-terminal fusions with GFP in vector pEGFP-C1. Various AES deletion constructs (10 μg) were transfected into CHO cells, and cell death measured by trypan blue exclusion 48 hours after transfection.

[3] = test system: Bit1-induced apoptosis in HEK 293 cells; assay: Co-transfection of Bit1 with anti-apoptotic proteins; format: cell-based, human; settings: HEK 293 cells co-transfected with Bit1
Method: Co-transfections were performed with cells plated on non-coated dishes transfected with 5 μg Bit1 plasmid alone or together with 10 μg dominant negative (DN) R-Ras, or activated H-Ras plasmid (Zou et al., Proc. Natl. Acad. Sci. USA 96: 13813-13818 (1999)). […] Expression of the transfected proteins was confirmed by immunoblotting. Apoptosis was assayed as described above.

[4] = test system: Bit1-induced apoptosis in HEK 293 cells; assay: Extracellular matrix proteins and Bit1-induced apoptosis, trypan blue staining; format: cell-based, human; settings: HEK 293 cells plated onto coated dishes, 10 μg Bit1 plasmid, 48 hours
Method: Several extracellular matrix proteins were assayed for the ability to modulate Bit1-mediated apoptosis. Cells were plated onto bacterial culture dishes pre-coated overnight with fibronectin (Chemicon; Temecula; CA), vitronectin (SIGMA; St. Louis, Mo.) or type I collagen (SIGMA), and transfected and assayed for apoptosis as described above.
To analyze integrin involvement in protecting attached cells against the pro-apoptotic effect of Bit1, Bit1 cell lines expressing either α5β1 or αvβ1 as the main fibronectin receptor were compared. The two cell lines attach equally well to fibronectin but, like cytoplasmically truncated α5β1, αvβ1 fails to protect cells against apoptosis induced by serum deprivation (Zhang et al., supra, 1995; and Matter and Ruoslahti, supra, 2001).
Experiments with extracellular matrix proteins were performed as follows. Cells were plated onto uncoated tissue culture plates or onto bacterial culture plates coated with fibronectin, vitronectin or collagen, and allowed to attach in the presence of serum. The attachment was equal on all of these surfaces. The cells were then transfected with 10 μg of Bit1 expression plasmid; where indicated, cells were treated with a control IgG of unrelated specificity or monoclonal anti-human α5 antibody (Chemicon), both at 10 μg/ml. Cell death was measured by trypan blue staining 48 hours after the transfection.

[5] = test system: Bit1-AES complex in HeLa cells; assay: Co-immunoprecipitation of Bit1-AES complex, cells plated on fibronectin or collagen; format: cell-based; settings: HeLa cells plated on fibronectin versus collagen, quantification of gel bands, 24 h after transfection
Method: In these experiments, HeLa cells were plated on fibronectin or collagen before transfection with pCMV-Myc-Bit1 (3 μg) and pCMV-flag-AES (3 μg) plasmids. Cell lysates were harvested 24 h after transfection and immunoprecipitated with anti-flag and immunoblotted with anti-myc. The total amount of DNA used was adjusted to 10 μg with empty vector in each transfection. The expression of the transfected AES in each sample was confirmed by immunoblotting 20 μl of the whole extract with anti-flag as is shown in FIG. 6C, lower boxes in B and C.
Thus, a low level of Bit1/AES complex correlated with cell survival and a high level is associated with apoptosis.

CN[C@@H]1C[C@H]2O[C@@](C)([C@@H]1OC)n1c3ccccc3c3c4c(c5c6ccccc6n2c5c31)C(=O)NC4 [staurosporin]
localization of C-terminally tagged Bit1 (Bit1 in HeLa cells): released into the cytoplasm

COC(=O)C[C@H](NC(=O)[C@H](C)NC(=O)[C@@H](NC(=O)OCc1ccccc1)C(C)C)C(=O)CF [z-VAD-fmk] (Cbz-Val-Ala-Asp(OMe)-CH2F)
effect on apoptosis induced by Bit1 [1]: ineffective
effect on apoptosis induced by AES [2]: ineffective

AES residues 1-56: AES deletion mutant, amino-terminal fusion with GFP (MMFPQSRHSGSSHLPQQLKFTTSDSCDRIKDEFQLLQAQYHSLKLECDKLASEKSE; cysteine pairing not given here; also: amino-terminal fusion with GFP; UniProt Q08117 1-56, looked up, fragment)
pro-apoptotic activity of deletion constructs (CHO cells): no apoptotic activity

AES residues 57-88: AES deletion mutant, amino-terminal fusion with GFP (SEQ ID NO:9) (MQRHYVMYYEMSYGLNIEMHKQAEIVKRLNGI; also: amino-terminal fusion with GFP; UniProt Q08117 57-88, looked up, fragment)
pro-apoptotic activity of deletion constructs (CHO cells): efficiently induced apoptosis

AES residues 57-105: AES deletion mutant, amino-terminal fusion with GFP (SEQ ID NO:8) (MQRHYVMYYEMSYGLNIEMHKQAEIVKRLNGICAQVLPYLSQEHQQQVL; also: amino-terminal fusion with GFP; UniProt Q08117 57-105, looked up, fragment)
pro-apoptotic activity of deletion constructs (CHO cells): efficiently induced apoptosis

Bcl-2: anti-apoptotic protein, expression construct pcDNA3-Bcl-2
effect on apoptosis induced by Bit1 [1]: no effect
effect on apoptosis induced by Bit1 [3]: little or no effect
effect on apoptosis induced by AES [2]: partially effective

collagen: type I collagen coated on culture dishes (SIGMA)
protection from Bit1-induced apoptosis [4]: could not confer the same protective effect

fibronectin
protection from Bit1-induced apoptosis [4]: largely protected
reduction in Bit1/AES complex on fibronectin [5]: approximately 75%
